# Results: ChEMBL document CHEMBL3994622, “Design and synthesis of new RAF kinase-inhibiting antiproliferative quinoline derivatives. Part 2: Diarylurea derivatives” (Eur J Med Chem, 2017)
# Assays:
# Format in all cases: functional
# [1] = system: CCRF-CEM; assay: Growth inhibition of human CCRF-CEM cells assessed as cell growth at 10 uM incubated for 48 hrs by sulforhodamine B assay relative to control; details: read-out: Activity
# [2] = system: K562; assay: Growth inhibition of human K562 cells assessed as cell growth at 10 uM incubated for 48 hrs by sulforhodamine B assay relative to control; details: K562, 48 h, read-out: Activity
# [3] = system: SR; assay: Growth inhibition of human SR cells assessed as cell growth at 10 uM incubated for 48 hrs by sulforhodamine B assay relative to control; details: read-out: Activity
# [4] = system: EKVX; assay: Growth inhibition of human EKVX cells assessed as cell growth at 10 uM incubated for 48 hrs by sulforhodamine B assay relative to control; details: read-out: Activity
# [5] = system: HOP-92; assay: Growth inhibition of human HOP92 cells assessed as cell growth at 10 uM incubated for 48 hrs by sulforhodamine B assay relative to control; details: HOP-92, 48 h, read-out: Activity
# [6] = system: NCI-H226; assay: Growth inhibition of human NCI-H226 cells assessed as cell growth at 10 uM incubated for 48 hrs by sulforhodamine B assay relative to control; details: NCI-H226, 48 h, read-out: Activity
# [7] = system: HT-29; assay: Growth inhibition of human HT-29 cells assessed as cell growth at 10 uM incubated for 48 hrs by sulforhodamine B assay relative to control; details: HT-29, 48 h, read-out: Activity
# [8] = system: SW-620; assay: Growth inhibition of human SW620 cells assessed as cell growth at 10 uM incubated for 48 hrs by sulforhodamine B assay relative to control; details: SW-620, 48 h, read-out: Activity
# [9] = system: SF-539; assay: Growth inhibition of human SF539 cells assessed as cell growth at 10 uM incubated for 48 hrs by sulforhodamine B assay relative to control; details: SF-539, 48 h, read-out: Activity
# [10] = system: SNB-19; assay: Growth inhibition of human SNB19 cells assessed as cell growth at 10 uM incubated for 48 hrs by sulforhodamine B assay relative to control; details: SNB-19, 48 h, read-out: Activity
# [11] = system: LOX IMVI; assay: Growth inhibition of human LOXIMVI cells assessed as cell growth at 10 uM incubated for 48 hrs by sulforhodamine B assay relative to control; details: read-out: Activity
# [12] = system: M14; assay: Growth inhibition of human M14 cells assessed as cell growth at 10 uM incubated for 48 hrs by sulforhodamine B assay relative to control; details: M14, 48 h, read-out: Activity
# [13] = system: SK-MEL-2; assay: Growth inhibition of human SK-MEL-2 cells assessed as cell growth at 10 uM incubated for 48 hrs by sulforhodamine B assay relative to control; details: SK-MEL-2, 48 h, read-out: Activity
# [14] = system: SK-MEL-28; assay: Growth inhibition of human SK-MEL-28 cells assessed as cell growth at 10 uM incubated for 48 hrs by sulforhodamine B assay relative to control; details: SK-MEL-28, 48 h, read-out: Activity
# [15] = system: IGROV-1; assay: Growth inhibition of human IGROV1 cells assessed as cell growth at 10 uM incubated for 48 hrs by sulforhodamine B assay relative to control; details: IGROV-1, 48 h, read-out: Activity
# [16] = system: OVCAR-5; assay: Growth inhibition of human OVCAR5 cells assessed as cell growth at 10 uM incubated for 48 hrs by sulforhodamine B assay relative to control; details: OVCAR-5, 48 h, read-out: Activity
# [17] = system: OVCAR-8; assay: Growth inhibition of human OVCAR8 cells assessed as cell growth at 10 uM incubated for 48 hrs by sulforhodamine B assay relative to control; details: OVCAR-8, 48 h, read-out: Activity
# [18] = system: SK-OV-3; assay: Growth inhibition of human SKOV3 cells assessed as cell growth at 10 uM incubated for 48 hrs by sulforhodamine B assay relative to control; details: SK-OV-3, 48 h, read-out: Activity
# [19] = system: 786-0; assay: Growth inhibition of human 786-0 cells assessed as cell growth at 10 uM incubated for 48 hrs by sulforhodamine B assay relative to control; details: 786-0, 48 h, read-out: Activity
# [20] = system: ACHN; assay: Growth inhibition of human ACHN cells assessed as cell growth at 10 uM incubated for 48 hrs by sulforhodamine B assay relative to control; details: read-out: Activity
# [21] = system: SN12C; assay: Growth inhibition of human SN12C cells assessed as cell growth at 10 uM incubated for 48 hrs by sulforhodamine B assay relative to control; details: read-out: Activity
# [22] = system: UO-31; assay: Growth inhibition of human UO31 cells assessed as cell growth at 10 uM incubated for 48 hrs by sulforhodamine B assay relative to control; details: UO-31, 48 h, read-out: Activity
# [23] = system: PC-3; assay: Growth inhibition of human PC3 cells assessed as cell growth at 10 uM incubated for 48 hrs by sulforhodamine B assay relative to control; details: PC-3, 48 h, read-out: Activity
# [24] = system: DU-145; assay: Growth inhibition of human DU145 cells assessed as cell growth at 10 uM incubated for 48 hrs by sulforhodamine B assay relative to control; details: DU-145, 48 h, read-out: Activity
# [25] = system: MCF7; assay: Growth inhibition of human MCF7 cells assessed as cell growth at 10 uM incubated for 48 hrs by sulforhodamine B assay relative to control; details: MCF7, 48 h, read-out: Activity
# [26] = system: Hs-578T; assay: Growth inhibition of human Hs 578T cells assessed as cell growth at 10 uM incubated for 48 hrs by sulforhodamine B assay relative to control; details: read-out: Activity
# [27] = system: CCRF-CEM; assay: Growth inhibition of human CCRF-CEM cells incubated for 48 hrs by sulforhodamine B assay
# [28] = system: HL-60(TB); assay: Growth inhibition of human HL-60(TB) cells incubated for 48 hrs by sulforhodamine B assay; details: HL-60, 48 h
# [29] = system: NCI-H23; assay: Growth inhibition of human NCI-H23 cells incubated for 48 hrs by sulforhodamine B assay; details: NCI-H23, 48 h
# [30] = system: HCC 2998; assay: Growth inhibition of human HCC2998 cells incubated for 48 hrs by sulforhodamine B assay; details: HCC 2998, 48 h
# [31] = system: OVCAR-4; assay: Growth inhibition of human OVCAR4 cells incubated for 48 hrs by sulforhodamine B assay; details: OVCAR-4, 48 h
# [32] = system: 786-0; assay: Growth inhibition of human 786-0 cells incubated for 48 hrs by sulforhodamine B assay; details: 786-0, 48 h
# [33] = system: UO-31; assay: Growth inhibition of human UO31 cells incubated for 48 hrs by sulforhodamine B assay; details: UO-31, 48 h
# [34] = system: PC-3; assay: Growth inhibition of human PC3 cells incubated for 48 hrs by sulforhodamine B assay; details: PC-3, 48 h
# [35] = read-out: LC50 (the source's name)
structure (smiles),measurement,setting,value
COc1cc2cc(Oc3ccc(NC(=O)Nc4ccc(Cl)c(C(F)(F)F)c4)cc3)c(C)nc2cc1OC,growth at 10 µM,[1],-17.6%
same,growth at 10 µM,[2],-9.54%
same,growth at 10 µM,[3],-32.5%
same,growth at 10 µM,[4],8.83%
same,growth at 10 µM,[5],-22.3%
same,growth at 10 µM,[6],4.49%
same,growth at 10 µM,[7],-24.9%
same,growth at 10 µM,[8],7.51%
same,growth at 10 µM,[9],-36.2%
same,growth at 10 µM,[10],23.7%
same,growth at 10 µM,[11],-81.3%
same,growth at 10 µM,[12],-73.7%
same,growth at 10 µM,[13],-49.8%
same,growth at 10 µM,[14],-35.9%
same,growth at 10 µM,[15],-7.69%
same,growth at 10 µM,[16],18%
same,growth at 10 µM,[17],7.34%
same,growth at 10 µM,[18],-4.09%
same,growth at 10 µM,[19],-21.1%
same,growth at 10 µM,[20],13.6%
same,growth at 10 µM,[21],13.2%
same,growth at 10 µM,[22],-45.1%
same,growth at 10 µM,[23],-0.61%
same,growth at 10 µM,[24],12.7%
same,growth at 10 µM,[25],2.59%
same,growth at 10 µM,[26],2.5%
same,GI50,[27],1.01 µM
same,TGI,[27],3.09 µM
same,CC50,[27]; [35],> 32.5 µM
same,GI50,[28],1.13 µM
same,TGI,[28],3.12 µM
same,CC50,[28]; [35],> 32.5 µM
same,GI50,[29],0.991 µM
same,TGI,[29],3.79 µM
same,CC50,[29]; [35],15.8 µM
same,GI50,[30],1.77 µM
same,TGI,[30],5.48 µM
same,CC50,[30]; [35],13.6 µM
same,GI50,[31],1.37 µM
same,TGI,[31],6.1 µM
same,CC50,[31]; [35],23.5 µM
same,GI50,[32],1.17 µM
same,TGI,[32],4.97 µM
same,CC50,[32]; [35],18.8 µM
same,GI50,[33],0.924 µM
same,TGI,[33],2.38 µM
same,CC50,[33]; [35],13.4 µM
same,GI50,[34],0.781 µM
same,TGI,[34],2.96 µM
same,CC50,[34]; [35],> 32.5 µM
